The results in this text go back to publication PMC12445692 (2025).

As a reminder, the ΔTm is the shift of the melting midpoint relative to a reference. A word on the KD: it is the equilibrium constant for the complex coming apart.

In test [1] the test system is MYC G4 (Myc2345_T23) (DNA, G4) TGAGGGTGGGTAGGGTGGGTAA
The test is described as follows: ESI mass spectrometry. The following applies: K+ (20 mM potassium phosphate, 80 mM KCl); pH 7.4, 100 μM DNA.

In test [2] the test system is Myc2345 (DNA, G4) TGAGGGTGGGTAGGGTGGGGAA
In words: ESI mass spectrometry. The following applies: K+ (20 mM potassium phosphate, 80 mM KCl); pH 7.4, 100 μM DNA.

Test [3] concerns MYC G4 (Myc2345_T23) (DNA, G4) TGAGGGTGGGTAGGGTGGGTAA
In words: NMR solution structure. To be noted: K+ (2 mM potassium phosphate, 8 mM KCl); pH 7.4, 298 K.

The test system of test [4] is Myc2345 (DNA, G4) TGAGGGTGGGTAGGGTGGGGAA
The test is described as follows: 1H NMR titration and 15N HSQC.

The subject of test [5] is MYC G4 (Myc2345_T23) (DNA, G4) TGAGGGTGGGTAGGGTGGGTAA
The test is described as follows: differential scanning calorimetry. To be noted: 100 μM DNA, DNA:ligand 1:4 (400 μM BTO-28), 1.0°C/min. On the technique in general: In DSC, transitions show as peaks or steps in heat flow.

Test [6] relates to Myc2345 (DNA, G4) TGAGGGTGGGTAGGGTGGGGAA
The test is described as follows: differential scanning calorimetry. To be noted: 100 μM DNA, DNA:ligand 1:4 (400 μM BTO-28), 1.0°C/min.

For test [7], the system named is NHE III1 (DNA, G4) TGGGGAGGGTGGGGAGGGTGGGGAAGG
The test is described as follows: differential scanning calorimetry. To be noted: 100 μM DNA, DNA:ligand 1:4 (400 μM BTO-28), 1.0°C/min.

The test system of test [8] is dsDNA (DNA, duplex) CAATCGGATCGAATTCGATCCGATTG
In words: differential scanning calorimetry. The following applies: 100 μM DNA, DNA:ligand 1:4 (400 μM BTO-28), 1.0°C/min.

In test [9] the test system is 5'-Cy5 MYC G4 (DNA, G4) TGAGGGTGGGTAGGGTGGGTAA
The test is described as follows: fluorescence polarization, single-site fit. To be noted: K+ (20 mM potassium phosphate, 80 mM KCl); pH 7.4, room temperature, 20 nM DNA; high-affinity site; Cy5 end not given, 5' inferred. (In general: Fluorescence polarisation rises when a labelled molecule tumbles more slowly, as on binding a larger partner.)

Test [10] concerns 3'-Cy5 MYC G4 (DNA, G4) TGAGGGTGGGTAGGGTGGGTAA
The test is described as follows: fluorescence polarization, single-site fit. The following applies: K+ (20 mM potassium phosphate, 80 mM KCl); pH 7.4, room temperature, 20 nM DNA; weaker than 5' end.

Test [11] has as its system 5'-Cy5 dsDNA (DNA, duplex) CAATCGGATCGAATTCGATCCGATTG
The test is described as follows: fluorescence polarization, single-site fit. The following applies: K+ (20 mM potassium phosphate, 80 mM KCl); pH 7.4, room temperature, 20 nM DNA; ligand 0-2 μM.

In test [12] the test system is 5'-Cy5 KRAS (DNA, G4) AGGGCGGTGTGGGAAGAGGGAAGAGGGGGAGGCAG
In words: fluorescence polarization, single-site fit. To be noted: K+ (20 mM potassium phosphate, 80 mM KCl); pH 7.4, room temperature, 20 nM DNA; ligand 0-2 μM.

Test [13] concerns 5'-Cy5 RET (DNA, G4) GGGGCGGGGCGGGGCGGGGG
In words: fluorescence polarization, single-site fit. To be noted: K+ (20 mM potassium phosphate, 80 mM KCl); pH 7.4, room temperature, 20 nM DNA; ligand 0-2 μM.

Test [14] relates to 5'-Cy5 hTERT (DNA, G4) GGGTTAGGGTTAGGGTTAGGGTTAGGGTTAG
In words: fluorescence polarization, single-site fit. To be noted: K+ (20 mM potassium phosphate, 80 mM KCl); pH 7.4, room temperature, 20 nM DNA; ligand 0-2 μM.

Test [15] concerns 5'-Cy5 KIT (DNA, G4) GGGAGGGAGGGCGCTGGGAGGAGGG
The test is described as follows: fluorescence polarization, single-site fit. To be noted: K+ (20 mM potassium phosphate, 80 mM KCl); pH 7.4, room temperature, 20 nM DNA; ligand 0-2 μM.

As for `Cc1cc(/C=C2\Sc3ccccc3N2CCCN2CCCC2)c2ccccc2[n+]1C`, the binding entry in [1], in test [2], in test [3], in test [4] and in test [7] was “yes” in each case. The shift in melting temperature (ΔTm) in test [5] was 25.6 °C; in [6], 26.0 °C; in test [8], -4.3 °C. For the same molecule, the KD in test [9] is 0.0068 µM; in [10], 0.0898 ± 0.00507 µM; in [11], greater than 2 µM; in [12], 0.67 ± 0.03509 µM; in test [13] it was greater than 2 µM; in test [14] it was greater than 2 µM. In addition, the KD in test [15] is 1.246 ± 0.07791 µM.
